Counter-ions that a name gives are not always drawn.
Legend:
[1] = molecular target: purified human plasma kallikrein (Homo sapiens (Human), UniProt P03952); test: biochemical; type: biochemical; conditions: read-out: Plasma Kallikrein Ki
[2] = molecular target: purified human Factor XIa (Homo sapiens (Human), UniProt P03951); test: biochemical; type: biochemical; conditions: read-out: Factor XIa Ki
Chain of purified human Factor XIa (P03951 whole entry, looked up): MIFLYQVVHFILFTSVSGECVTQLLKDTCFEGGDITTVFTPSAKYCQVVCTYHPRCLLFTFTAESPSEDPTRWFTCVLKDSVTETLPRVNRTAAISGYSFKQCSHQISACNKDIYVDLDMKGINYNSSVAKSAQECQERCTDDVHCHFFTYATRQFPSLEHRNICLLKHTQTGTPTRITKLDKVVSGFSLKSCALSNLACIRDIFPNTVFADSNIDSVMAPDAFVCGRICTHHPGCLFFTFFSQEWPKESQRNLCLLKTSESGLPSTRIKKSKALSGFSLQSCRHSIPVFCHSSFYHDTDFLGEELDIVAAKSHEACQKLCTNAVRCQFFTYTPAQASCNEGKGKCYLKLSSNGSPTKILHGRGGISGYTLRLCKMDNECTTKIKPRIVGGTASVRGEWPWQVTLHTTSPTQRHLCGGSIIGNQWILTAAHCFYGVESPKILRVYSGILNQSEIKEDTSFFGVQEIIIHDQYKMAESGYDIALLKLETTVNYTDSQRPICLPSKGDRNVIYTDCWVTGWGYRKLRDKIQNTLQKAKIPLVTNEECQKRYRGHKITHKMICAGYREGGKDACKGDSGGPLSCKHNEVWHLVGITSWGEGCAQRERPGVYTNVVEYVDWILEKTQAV
Chain of purified human Factor XIa (P03951 whole entry partner, looked up): as the sequence (P03951 whole entry, looked up) above

Chain of purified human plasma kallikrein (P03952 whole entry, looked up): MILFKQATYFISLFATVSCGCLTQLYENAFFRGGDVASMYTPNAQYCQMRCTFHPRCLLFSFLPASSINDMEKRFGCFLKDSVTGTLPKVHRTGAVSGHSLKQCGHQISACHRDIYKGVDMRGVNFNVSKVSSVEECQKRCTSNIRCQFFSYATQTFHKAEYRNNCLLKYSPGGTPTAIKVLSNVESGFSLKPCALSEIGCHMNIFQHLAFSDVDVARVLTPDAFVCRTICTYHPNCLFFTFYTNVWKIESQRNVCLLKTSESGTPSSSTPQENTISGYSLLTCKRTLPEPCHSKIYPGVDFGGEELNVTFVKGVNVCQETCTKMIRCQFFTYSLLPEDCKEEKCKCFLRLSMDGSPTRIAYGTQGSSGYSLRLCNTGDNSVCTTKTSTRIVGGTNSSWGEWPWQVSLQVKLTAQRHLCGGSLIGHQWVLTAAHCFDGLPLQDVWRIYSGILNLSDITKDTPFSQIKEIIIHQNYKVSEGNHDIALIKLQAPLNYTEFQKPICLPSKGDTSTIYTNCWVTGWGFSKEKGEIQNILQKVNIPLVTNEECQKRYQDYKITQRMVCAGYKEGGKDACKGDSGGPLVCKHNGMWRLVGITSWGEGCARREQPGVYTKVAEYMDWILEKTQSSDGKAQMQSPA
Chain of purified human plasma kallikrein (P03952 whole entry partner, looked up): as the sequence (P03952 whole entry, looked up) above

COC(=O)Nc1ccc2c(c1)NC(=O)[C@H](C)CCC[C@H](N1CCC(c3nccc(Cl)c3F)=CC1=O)c1cc-2ccn1 [Example 10, Methyl N-[(10R,14S)-14-[4-(4-chloro-3-fluoropyridin-2-yl)-6-oxo-1,2,3,6-tetrahydropyridin-1-yl]-10-methyl-9-oxo-8,16-diazatricyclo[13.3.1.0^2,7]nonadeca-1(18),2,4,6,15(19),16-hexaen-5-yl]carbamate, TFA salt]
Ki [1]: 1 nM | Ki [2]: 0.92 nM

C[C@@H]1CCC[C@H](N2CCC(c3c(F)ccc(Cl)c3F)=CC2=O)c2cc(ccn2)-c2cc(C#N)ccc2NC1=O [Example 138, (10R,14S)-14-[4-(3-chloro-2,6-difluorophenyl)-6-oxo-1,2,3,6-tetrahydropyridin-1-yl]-10-methyl-9-oxo-8,16-diazatricyclo[13.3.1.0^2,7]nonadeca-1(19),2(7),3,5,15,17-hexaene-4-carbonitrile]
Ki [1]: 31.7 nM | Ki [2]: 36.2 nM

COC(=O)Nc1ccc2c(c1)NC(=O)[C@H](C)CCC[C@H](N1CCC(c3cccc(Cl)n3)=CC1=O)c1cc-2ccn1 [Example 157, Methyl N-[(10R,14S)-14-[4-(6-chloropyridin-2-yl)-6-oxo-1,2,3,6-tetrahydropyridin-1-yl]-10-methyl-9-oxo-8,16-diazatricyclo[13.3.1.0^2,7]nonadeca-1(19),2,4,6,15,17-hexaen-5-yl]carbamate, 2 TFA salt]
Ki [1]: 108 nM | Ki [2]: 74.9 nM

C[C@@H]1CCC[C@H](N2CCC(c3cc(Cl)ccc3-n3cncn3)=CC2=O)c2cc(ccn2)-c2ccccc2NC1=O [Example 71, (10R,14S)-14-{4-[5-Chloro-2-(1H-1,2,4-triazol-1-yl)phenyl]-6-oxo-1,2,3,6-tetrahydropyridin-1-yl}-10-methyl-8,16-diazatricyclo[13.3.1.0^2,7]nonadeca-1(19),2(7),3,5,15,17-hexaen-9-one, TFA salt]
Ki [1]: 60 nM | Ki [2]: 1.68 nM

C[C@@H]1CCC[C@H](N2CCC(c3c(F)ccc(Cl)c3F)=CC2=O)c2cc(ccn2)-c2cc3ccc(=O)[nH]c3cc2NC1=O [Example 81, (14R,18S)-18-[4-(3-Chloro-2,6-difluorophenyl)-6-oxo-1,2,3,6-tetrahydropyridin-1-yl]-14-methyl-8,12,20-triazatetracyclo[17.3.1.0^2,11.0^4,9]tricosa-1(23),2,4(9),5,10,19,21-heptaene-7,13-dione, TFA salt]
Ki [1]: 1 nM | Ki [2]: 0.31 nM

C[C@@H]1CCC[C@H](N2CCC(c3c(F)ccc(Cl)c3F)=CC2=O)c2cccc(c2)-c2ccccc2NC1=O [Example 162, (10R,14S)-14-[4-(3-chloro-2,6-difluorophenyl)-6-oxo-1,2,3,6-tetrahydropyridin-1-yl]-10-methyl-8-azatricyclo[13.3.1.0^2,7]nonadeca-1(19),2,4,6,15,17-hexaen-9-one]
Ki [1]: 125 nM | Ki [2]: 76.5 nM

C[C@@H]1CCC[C@H](N2CCC(c3c(Br)ccc(Cl)c3F)=CC2=O)c2cc(ccn2)-c2cc(F)ccc2NC1=O [Example 147, (10R,14S)-14-[4-(6-bromo-3-chloro-2-fluorophenyl)-6-oxo-1,2,3,6-tetrahydropyridin-1-yl]-4-fluoro-10-methyl-8,16-diazatricyclo[13.3.1.0^2,7]nonadeca-1(19),2(7),3,5,15,17-hexaen-9-one]
Ki [1]: 7.51 nM | Ki [2]: 3.59 nM

C[C@@H]1CCC[C@H](N2CCC(c3c(F)ccc(Cl)c3F)=CC2=O)c2cc(ccn2)-c2c(F)cccc2NC1=O [Example 80, (10R,14S)-14-[4-(3-Chloro-2,6-difluorophenyl)-6-oxo-1,2,3,6-tetrahydropyridin-1-yl]-3-fluoro-10-methyl-8,16-diazatricyclo[13.3.1.0^2,7]nonadeca-1(19),2(7),3,5,15,17-hexaen-9-one, TFA salt]
Ki [1]: 38 nM | Ki [2]: 13.6 nM

C[C@@H]1CCC[C@H](N2CCC(c3c(Br)ccc(Cl)c3F)=CC2=O)c2cc(ccn2)-c2ccc(C(=O)O)cc2NC1=O [Example 28, (14S)-14-[4-(6-Bromo-3-chloro-2-fluorophenyl)-6-oxo-1,2,3,6-tetrahydropyridin-1-yl]-10-methyl-9-oxo-8,16-diazatricyclo[13.3.1.0^2,7]nonadeca-1(19),2(7),3,5,15,17-hexaene-5-carboxylic acid, TFA salt]
Ki [1]: 196 nM | Ki [2]: > 443 nM

COC(=O)Nc1ccc2c(c1)NC(=O)[C@H](C)CCC[C@H](N1CCC(c3nccc(Cl)c3OC)=CC1=O)c1cc-2cc(OC)n1 [Example 6, Methyl N-[(10R,14S)-14-[4-(4-chloro-3-methoxypyridin-2-yl)-6-oxo-1,2,3,6-tetrahydropyridin-1-yl]-17-methoxy-10-methyl-9-oxo-8,16-diazatricyclo[13.3.1.0^2,7]nonadeca-1(18),2,4,6,15(19),16-hexaen-5-yl]carbamate, TFA salt]
Ki [1]: 303 nM | Ki [2]: 158 nM

COC(=O)c1cccc2c1-c1ccnc(c1)[C@@H](N1CCC(c3c(F)ccc(Cl)c3F)=CC1=O)CCC[C@@H](C)C(=O)N2 [Example 213, Methyl (10R,14S)-14-[4-(3-chloro-2,6-difluorophenyl)-6-oxo-1,2,3,6-tetrahydropyridin-1-yl]-10-methyl-9-oxo-8,16-diazatricyclo[13.3.1.0^2,7]nonadeca-1(19),2(7),3,5,15,17-hexaene-3-carboxylate, TFA salt]
Ki [1]: 3370 nM | Ki [2]: > 413 nM

COC(=O)Nc1ccc2c(c1)NC(=O)[C@H](C)CCC[C@H](N1CCC(c3c(F)cccc3C#N)=CC1=O)c1cc-2ccn1 [Example 4, Methyl N-[(10R,14S)-14-[4-(2-cyano-6-fluorophenyl)-6-oxo-1,2,3,6-tetrahydropyridin-1-yl]-10-methyl-9-oxo-8,16-diazatricyclo[13.3.1.0^2,7]nonadeca-1(19),2,4,6,15,17-hexaen-5-yl]carbamate, TFA salt]
Ki [1]: 1 nM | Ki [2]: 2.64 nM

C[C@@H]1CCC[C@H](N2CCC(c3c(-c4ccncc4)ccc(Cl)c3F)=CC2=O)c2cc(ccn2)-c2ccccc2NC1=O [Example 56, (10R,14S)-14-{4-[3-Chloro-2-fluoro-6-(pyridin-4-yl)phenyl]-6-oxo-1,2,3,6-tetrahydropyridin-1-yl}-10-methyl-8,16-diazatricyclo[13.3.1.0^2,7]nonadeca-1(19),2,4,6,15,17-hexaen-9-one, TFA salt]
Ki [1]: 137 nM | Ki [2]: 16.5 nM

COC(=O)Nc1ccc2c(c1)NC(=O)[C@H](C)CCC[C@H](N1CCC(c3ccc(OC)cc3)=CC1=O)c1cc-2ccn1 [Example 117, Methyl N-[(10R,14S)-14-[4-(4-methoxyphenyl)-6-oxo-1,2,3,6-tetrahydropyridin-1-yl]-10-methyl-9-oxo-8,16-diazatricyclo[13.3.1.0^2,7]nonadeca-1(18),2,4,6,15(19),16-hexaen-5-yl]carbamate]
Ki [1]: > 13000 nM | Ki [2]: > 398 nM

C[C@@H]1CCC[C@H](N2CCC(c3c(F)ccc(C#N)c3F)=CC2=O)c2cc(ccn2)-c2cc(C#N)ccc2NC1=O [Example 139, (10R,14S)-14-[4-(3-cyano-2,6-difluorophenyl)-6-oxo-1,2,3,6-tetrahydropyridin-1-yl]-10-methyl-9-oxo-8,16-diazatricyclo[13.3.1.0^2,7]nonadeca-1(19),2(7),3,5,15,17-hexaene-4-carbonitrile]
Ki [1]: 6050 nM | Ki [2]: > 408 nM

C[C@@H]1CCC[C@H](N2CCC(c3c(N)ccc(Cl)c3F)=CC2=O)c2cc(ccn2)-c2ccccc2NC1=O [Example 66, (10R,14S)-14-[4-(6-Amino-3-chloro-2-fluorophenyl)-6-oxo-1,2,3,6-tetrahydropyridin-1-yl]-10-methyl-8,16-diazatricyclo[13.3.1.0^2,7]nonadeca-1(19),2,4,6,15,17-hexaen-9-one, TFA salt]
Ki [1]: 45 nM | Ki [2]: 66.6 nM

COC(=O)c1ccc2c(c1)-c1cccc(c1)[C@@H](N1CCC(c3c(Br)ccc(Cl)c3F)=CC1=O)CCC[C@@H](C)C(=O)N2 [Example 163, Methyl (10R,14S)-14-[4-(6-bromo-3-chloro-2-fluorophenyl)-6-oxo-1,2,3,6-tetrahydropyridin-1-yl]-10-methyl-9-oxo-8-azatricyclo[13.3.1.0^2,7]nonadeca-1(19),2,4,6,15,17-hexaene-4-carboxylate]
Ki [1]: 224 nM | Ki [2]: > 398 nM

CC(C)[C@H]1CCC[C@H](N2CCC(c3c(F)ccc(Cl)c3F)=CC2=O)c2cc(ccn2)-c2ccccc2NC1=O [Example 96, (10R,14S)-14-[4-(3-chloro-2,6-difluorophenyl)-6-oxo-1,2,3,6-tetrahydropyridin-1-yl]-10-(propan-2-yl)-8,16-diazatricyclo[13.3.1.0^2,7]nonadeca-1(18),2,4,6,15(19),16-hexaen-9-one, TFA salt]
Ki [1]: 1970 nM | Ki [2]: > 422 nM

COC(=O)Nc1ccc2c(c1)NC(=O)[C@H](C)CCC[C@H](N1CCC(C3CCCC(C)C3)=CC1=O)c1cc-2ccn1 (stereo partly drawn) [Example 159, Methyl N-[(10R,14S)-10-methyl-14-[4-(3-methylcyclohexyl)-6-oxo-1,2,3,6-tetrahydropyridin-1-yl]-9-oxo-8,16-diazatricyclo[13.3.1.0^2,7]nonadeca-1(19),2,4,6,15,17-hexaen-5-yl]carbamate, TFA salt (diastereomeric isomers)]
Ki [1]: 58.9 nM | Ki [2]: 63.2 nM

C[C@@H]1CCC[C@H](N2CCC(c3c(C#N)ccc(C#N)c3F)=CC2=O)c2cc(ccn2)-c2ccccc2NC1=O [Example 46, (10R,14S)-14-[4-(3,6-Dicyano-2-fluorophenyl)-6-oxo-1,2,3,6-tetrahydropyridin-1-yl]-10-methyl-8,16-diazatricyclo[13.3.1.0^2,7]nonadeca-1(19),2,4,6,15,17-hexaen-9-one, TFA salt]
Ki [1]: 669 nM | Ki [2]: 325 nM

Cc1nnc(Nc2ccc3c(c2)NC(=O)[C@H](C)CCC[C@H](N2CCC(c4c(F)ccc(Cl)c4F)=CC2=O)c2cc-3ccn2)o1 [Example 21, (10R,14S)-14-[4-(3-Chloro-2,6-difluorophenyl)-6-oxo-1,2,3,6-tetrahydropyridin-1-yl]-10-methyl-5-[(5-methyl-1,3,4-oxadiazol-2-yl)amino]-8,16-diazatricyclo[13.3.1.0^2,7]nonadeca-1(19),2(7),3,5,15,17-hexaen-9-one, TFA salt]
Ki [1]: 1 nM | Ki [2]: 0.46 nM

— US9409908B2 (priority 2012, dated 2016)
